Results on 14 molecules are retold here after patent publication US20150225454A1, “TETRABRANCHED PEPTIDES AND ANALOGUES AS A NEW CLASS OF ANTIMICROBIALS AND THEIR PREPARATION THEREOF” (priority 2012, published 2015).

Converted amounts (≈) assume the structure as drawn. Where a SMILES comes first, the peptide text is derived from it. Bridges are numbered along the chain shown (N, C = ends). Roman numbers before positions name the chains, in order. Where no end group is shown, it is not given here.

Usually logP stands for a log measure of how a compound divides between an organic and an aqueous phase. The EC50 is the concentration that produces a half-maximal response. Lower therefore signals higher potency in that assay.

For one data set, the system named is C. albicans. The experiment in a line: microbe, parasite or virus in culture. It counts as cell-based. Particulars: for antifungal activity: against both C. albicans and Fusarium strains. Here is the method: The yeast strains were cultivated and suspended in Sabouraud's Dextrose (SD) broth diluted at one sixth at a starting OD600=˜0.08 in a flat-bottomed microtitre plate. A serial dilution of peptide in the same broth was mixed with the inoculum to give a final peptide concentration of 0.4-22 μM. The antifungal activity was assessed by monitoring the OD600 in cycles of 30 minutes and an orbital shaking at 100 rpm using an Infinite M200 microplate reader (Tecan Group Ltd., Switzerland) for 24/48 h at 37° C. Cultures without peptides were used as positive controls and broth alone or with 22 μM peptide served as negative controls. The minimum concentration required for complete inhibition was assessed by both visible observations as well as by measuring the OD600 and taken as the MIC. Each experiment was repeated in triplicates.

The next data set relates to fungi. The following applies: cited from earlier work.
The conditions of data set [1]: cited from earlier work.
For data set [2] the following is noted: temperature or pH; cited from earlier work.
A short description of data set [3]: Calcein release from fungal model membrane SUVs. The following applies: peptide:lipid ratio 1:30 and 1:15. How it is done: For the preparation of PC/PE/PI or PS/Erg SUV, the lipids were dissolved in chloroform/methanol (2:1, v/v) in a glass tube. Ergosterol was dissolved in same solvent and added to lipid mixture to make final ergosterol content of 15 wt %. The Lipid-ergosterol mixture was dried using nitrogen gas to form lipid layer. The film was hydrated in a buffer containing 20 mM PBS (pH 7), vortexed and sonicated. Each cycle of sonication (5 sec, 40° C.) is followed by freezing in liquid nitrogen and thawing on a water bath kept at 37° C. The procedure was repeated 5-6 times until an optically clear dispersion appeared. The SUV was divided into two parts. To the first part 50 mM calcein was added and incubated for 1 h. The excess calcein was removed by injecting 100 μL of the calcein-loaded SUV's into a Ultrahydrogel™ 250 (7.8 mm×300 mm) column equilibrated with 20 mM PBS (pH 7.0) and eluted isochratically at a flow rate of 1 ml/min for 1.5 column volumes. The calcein-loaded liposomes were mixed with calcein-free liposome (1:1) to adjust final liposome concentration. Peptide concentration was added to obtain 1:30 or 1:15 peptide:liposome ratio. Changes in the fluorescence signal after addition of peptide or Triton X-100 was measured on a PTI spectrofluorometer, using an excitation wavelength of 480 nm and emission wavelength of 512 nm. The Percentage calcein released at each time point was calculated using the equation: […]
Similar protocol was followed for the preparation of PC/Cholesterol SUVs.

The next data set deals with IOBA-NHC cells. Type of data set: cell-based, human. Particulars: 24 h. Here is the method:
IOBA-NHC cells were cultured under standard conditions (humidified atmosphere of 5% CO2 at 37° C.) in DMEM/F12 supplemented with 1 μg/ml bovine pancreas insulin, 2 ng/ml mouse epidermal growth factor, 0.1 μg/ml cholera toxin, […] hydrocortisone, 10% fetal bovine serum (FBS), 50 UI/ml penicillin, and 50 UI/ml streptomycin. Cells from passages 50-80 were used in all experiments. Every day, normal culture development was observed by phase-contrast microscopy. Cells were removed by gentle trypsin incubation at confluence and counted. They were seeded into 96 well culture plates (Corning, Schiphol-Rijk, The Netherlands) for microtitration analysis of flow cytotoxicity assay (˜10,000 cells/well). Cultures were kept at 37° C. for 24 h. Subconfluent cells (culture surface covering nearly 70%) were then exposed to various peptide concentrations (0.22-225 μM). Cytotoxicity was measured periodically using MultiTox-Fluor Multiplex assay kit (Promega, Wis., USA) by measuring the AFC fluorescence (λex=485 and λem=520 nm).

For the molecule “RGRKVVRRKK [Monomer, reference compound]”, the antifungal activity result in the data set with C. albicans is “weak antifungal activity”.

Take `Nc1nc(=O)[nH]cc1F` [Peptide 5-FC, 5-FC]: the Activity result in the data set with fungi is on record as “Not active against filamentous fungii”. Further, the logP in data set [1] is −1.1. Further, in data set [2], the Solubility was 1.05e+06 mg/L (≈ 8130 mM).

Turning to `C[C@@H]1[C@H](O)[C@@H](C)/C=C/C=C/CC/C=C/C=C/C=C/C=C/C(O[C@H]2O[C@H](C)[C@@H](O)[C@H](N)[C@@H]2O)CC2O[C@](O)(CC(O)C(O)CCC(O)CC(O)CC(O)CC(=O)O[C@H]1C)CC(O)C2C(=O)O` (some centres unmarked) [Nystatin], the Activity entry in the data set with fungi is given as “Broad spectrum”. In addition, in data set [1], the logP is recorded as 0.5. In addition, in data set [2], the Solubility was 360 (24° C.) mg/L.

With `CC[C@H](C)C[C@H](C)CCCCCCCCC(=O)N[C@H]1C[C@@H](O)[C@@H](NCCN)NC(=O)[C@@H]2[C@@H](O)CCN2C(=O)[C@H]([C@H](O)CCN)NC(=O)[C@H]([C@H](O)[C@@H](O)c2ccc(O)cc2)NC(=O)[C@@H]2C[C@@H](O)CN2C(=O)[C@H]([C@@H](C)O)NC1=O` [Caspofungin], the Activity result with fungi was “Effective against Candida spp”. The Solubility in data set [2] is recorded as 370 mg/L (≈ 0.338 mM).

On to `CC(=O)N1CCN(c2ccc(OCC3COC(Cn4ccnc4)(c4ccc(Cl)cc4Cl)O3)cc2)CC1` (centres unmarked) [Ketaconazole], for which, in the data set with fungi, the Activity result is “Broad spectrum”. Besides, the Solubility in data set [2] was 0.09 (25° C.) mg/L.

In the case of `CC(C)[C@H](NC(=O)[C@H](CCCCN)NC(=O)[C@H](CCCNC(=N)N)NC(=O)CNC(=O)[C@@H](N)CCCNC(=N)N)C(=O)N[C@H](C(=O)N[C@@H](CCCNC(=N)N)C(=O)N[C@@H](CCCNC(=N)N)C(=O)NCCCC[C@H](NC(=O)[C@H](CCCNC(=N)N)NC(=O)[C@H](CCCNC(=N)N)NC(=O)[C@@H](NC(=O)[C@@H](NC(=O)[C@H](CCCCN)NC(=O)[C@H](CCCNC(=N)N)NC(=O)CNC(=O)[C@@H](N)CCCNC(=N)N)C(C)C)C(C)C)C(=O)N[C@@H](CCCCN)C(=O)O)C(C)C` [Peptide B2088, reference compound] (I: H-RGRKVVRRKK-OH / II: H-RGRKVVRR; amide I:9-II:C; N-terminus and C-terminus assumed), the “decrease in MIC compared to the monomer” value with C. albicans is on record as roughly 14 ×. For the same molecule, in data set [3], the calcein release entry is reported as “decreased calcein release”.

In the case of `CN(C/C=C/C#CC(C)(C)C)Cc1cccc2ccccc12` [Terbinafine], in the data set with fungi, the Activity entry is on record as “Broad spectrum”. In addition, the logP in data set [1] is reported as 5.9. The Solubility in data set [2] is 0.00074 mg/L (≈ 2.54e-06 mM).

With `Clc1ccc(COC(Cn2ccnc2)c2ccc(Cl)cc2Cl)c(Cl)c1` (centres unmarked) [Miconazole], the Activity entry in the data set on fungi is “Broad spectrum”.

On to `CCC(C)n1ncn(-c2ccc(N3CCN(c4ccc(OCC5COC(Cn6cncn6)(c6ccc(Cl)cc6Cl)O5)cc4)CC3)cc2)c1=O` (centres unmarked) [Itraconazole], for which, in data set [2], the Solubility was 0.00047 mg/L (≈ 6.66e-07 mM).

Take `CC(C)[C@H](N)C(=O)N[C@@H](CCCNC(=N)N)C(=O)NCC(=O)N[C@@H](CCCNC(=N)N)C(=O)N[C@H](C(=O)N[C@@H](CCCNC(=N)N)C(=O)N[C@@H](CCCCN)C(=O)N[C@@H](CCCNC(=N)N)C(=O)NCCCC[C@H](NC(=O)[C@H](CCCNC(=N)N)NC(=O)[C@H](CCCCN)NC(=O)[C@H](CCCNC(=N)N)NC(=O)[C@@H](NC(=O)[C@H](CCCNC(=N)N)NC(=O)CNC(=O)[C@H](CCCNC(=N)N)NC(=O)[C@@H](N)C(C)C)C(C)C)C(=O)NCCCC[C@H](NC(=O)[C@H](CCCCNC(=O)[C@H](CCCNC(=N)N)NC(=O)[C@H](CCCCN)NC(=O)[C@H](CCCNC(=N)N)NC(=O)[C@@H](NC(=O)[C@H](CCCNC(=N)N)NC(=O)CNC(=O)[C@H](CCCNC(=N)N)NC(=O)[C@@H](N)C(C)C)C(C)C)NC(=O)[C@H](CCCNC(=N)N)NC(=O)[C@H](CCCCN)NC(=O)[C@H](CCCNC(=N)N)NC(=O)[C@@H](NC(=O)[C@H](CCCNC(=N)N)NC(=O)CNC(=O)[C@H](CCCNC(=N)N)NC(=O)[C@@H](N)C(C)C)C(C)C)C(=O)N[C@@H](CCCCN)C(=O)O)C(C)C` [Sc_B4010] (I: H-VRGRVRKRKKK-OH / II: H-VRGRVRKRK / III: H-VRGRVRKR / IV: H-VRGRVRKR; amide I:9-IV:C, I:10-II:C, II:9-III:C; N-terminus and C-terminus assumed): the “increase in MIC on scrambling the sequence of B4010” value in the data set with C. albicans was 2-4 fold. The figures for the calcein release result in data set [3] and in data set [3] (listed as scrambled peptide) were “decreased calcein release” and “about 41%”, respectively.

Take `C[C@H](NC(=O)CNC(=O)[C@@H](N)CCCNC(=N)N)C(=O)N[C@@H](CCCCN)C(=O)N[C@@H](C)C(=O)N[C@@H](C)C(=O)N[C@@H](CCCNC(=N)N)C(=O)N[C@@H](CCCNC(=N)N)C(=O)NCCCC[C@H](NC(=O)[C@H](CCCNC(=N)N)NC(=O)[C@H](CCCNC(=N)N)NC(=O)[C@H](C)NC(=O)[C@H](C)NC(=O)[C@H](CCCCN)NC(=O)[C@H](C)NC(=O)CNC(=O)[C@@H](N)CCCNC(=N)N)C(=O)NCCCC[C@H](NC(=O)[C@H](CCCCNC(=O)[C@H](CCCNC(=N)N)NC(=O)[C@H](CCCNC(=N)N)NC(=O)[C@H](C)NC(=O)[C@H](C)NC(=O)[C@H](CCCCN)NC(=O)[C@H](C)NC(=O)CNC(=O)[C@@H](N)CCCNC(=N)N)NC(=O)[C@H](CCCNC(=N)N)NC(=O)[C@H](CCCNC(=N)N)NC(=O)[C@H](C)NC(=O)[C@H](C)NC(=O)[C@H](CCCCN)NC(=O)[C@H](C)NC(=O)CNC(=O)[C@@H](N)CCCNC(=N)N)C(=O)N[C@@H](CCCCN)C(=O)O` [[(SEQ ID NO: 15)2K]2KK] (I: H-RGAKAARRKKK-OH / II: H-RGAKAARRK / III: H-RGAKAARR / IV: H-RGAKAARR; amide I:9-IV:C, I:10-II:C, II:9-III:C; N-terminus and C-terminus assumed): the EC50 with IOBA-NHC cells was greater than 250 µM.

In the data set with IOBA-NHC cells, `CC(C)[C@H](NC(=O)[C@H](CCCCN)NC(=O)[C@H](CCCNC(=N)N)NC(=O)CNC(=O)[C@@H](N)CCCNC(=N)N)C(=O)N[C@@H](C)C(=O)N[C@@H](CCCNC(=N)N)C(=O)N[C@@H](CCCNC(=N)N)C(=O)NCCCC[C@H](NC(=O)[C@H](CCCNC(=N)N)NC(=O)[C@H](CCCNC(=N)N)NC(=O)[C@H](C)NC(=O)[C@@H](NC(=O)[C@H](CCCCN)NC(=O)[C@H](CCCNC(=N)N)NC(=O)CNC(=O)[C@@H](N)CCCNC(=N)N)C(C)C)C(=O)NCCCC[C@H](NC(=O)[C@H](CCCCNC(=O)[C@H](CCCNC(=N)N)NC(=O)[C@H](CCCNC(=N)N)NC(=O)[C@H](C)NC(=O)[C@@H](NC(=O)[C@H](CCCCN)NC(=O)[C@H](CCCNC(=N)N)NC(=O)CNC(=O)[C@@H](N)CCCNC(=N)N)C(C)C)NC(=O)[C@H](CCCNC(=N)N)NC(=O)[C@H](CCCNC(=N)N)NC(=O)[C@H](C)NC(=O)[C@@H](NC(=O)[C@H](CCCCN)NC(=O)[C@H](CCCNC(=N)N)NC(=O)CNC(=O)[C@@H](N)CCCNC(=N)N)C(C)C)C(=O)N[C@@H](CCCCN)C(=O)O` [Peptide B4010-V6A] (I: H-RGRKVARRKKK-OH / II: H-RGRKVARRK / III: H-RGRKVARR / IV: H-RGRKVARR; amide I:9-IV:C, I:10-II:C, II:9-III:C) yielded a half-maximal effective concentration (EC50) greater than 225 µM.

Turning to `OC(Cn1cncn1)(Cn1cncn1)c1ccc(F)cc1F` [Fluconazole], in the data set on fungi, the Activity entry is given as “Broad spectrum. Less effective against”. Also, the Solubility in data set [2] was 1 mg/L (≈ 0.00327 mM).

Regarding “RGRKVVRRKKKRRVVKRGR [Linear Retrodimer, reference compound]”, the antifungal activity result in the data set on C. albicans was “weak antifungal activity”.
